Values after ≈ are worked out from the molar mass of the structure shown.
Legend:
[1] = biological target: T1, hVR1 (Homo sapiens, UniProt Q8NER1); test: hVR1 FLIPR (Fluorometric Image Plate Reader) screening assay; type: cell-based; conditions: inhibition of capsaicin-induced intracellular calcium increase
T1 construct: expressed in transfected cells
Protocol: 1. hVR1 FLIPR (Fluorometric Image Plate Reader) Screening Assay
Transfected CHO cells, stably expessing hVR1 (15,000 cells/well) are seeded in 50 ul media in a black clear bottom 384 plate (Greiner) and grown in a humidified incubator (37° C., 2% CO2), 24-30 hours prior to experiment.
Subsequently, the media is removed from the cell plate by inversion and 2 μM Fluo-4 is added using a multidrop (Labsystems). Following the 40 minutes dye incubation in the dark at 37° C. and 2% CO2, the extracellular dye present is washed away using an EMBLA (Scatron), leaving the cells in 40 ul of assay buffer (1×HBSS, 10 mM D-Glucose, 1 mM CaCl2, 10 mM HEPES, 10×7.5% NaHCO3 and 2.5 mM Probenecid).
FLIPR Assay—IC50 Determination Protocol
For IC50 determinations the fluorescence is read using FLIPR filter 1 (em […]). A is cellular baseline recording is taken for 30 seconds, followed by a 20 μl addition of 10, titrated half-log concentrations of the test compound, yielding cellular concentration ranging from 3 μM to 0.1 nM. Data is collected every 2 seconds for a further 5 minutes prior to the addition of a VR1 agonist solution: 20-50 nM solution of capsaicin by the FLIPR pipettor. The FLIPR continues to collect data for a further 4 minutes. Compounds having antagonistic properties against the hVR1 will inhibit the increase in intracellular calcium in response to the capsaicin addition. This consequently leading to a reduction in fluorescence signal and providing a reduced fluorescence reading, compared with no compound, buffer controls. Data is exported by the FLIPR program as a sum of fluorescence calculated under the curve upon the addition of capsaicin. Maximum inhibition, Hill slope and IC50 data for each compound are generated. […]

[2] = test system: carrageenan-induced heat hyperalgesia; test: Carrageenan model, heat plantar test (paw withdrawal latency); type: in vivo; conditions: rat, orally administered; for EC50 / ED50: po; for EC50 / ED50 / EC80: tested at Tmax; for Extrapolated Emax: non-linear regression; for Emax observed: reversal of heat hyperalgesia
[3] = aqueous solubility test; type: physicochemical; conditions: aqueous medium, pH 7.4, aqueous buffer
[4] = test system: FCA-induced heat hyperalgesia; test: Freund's Complete Adjuvant (FCA) model, heat plantar test (paw withdrawal latency); type: in vivo; conditions: rat, orally administered

T1 sequence (Q8NER1 whole entry): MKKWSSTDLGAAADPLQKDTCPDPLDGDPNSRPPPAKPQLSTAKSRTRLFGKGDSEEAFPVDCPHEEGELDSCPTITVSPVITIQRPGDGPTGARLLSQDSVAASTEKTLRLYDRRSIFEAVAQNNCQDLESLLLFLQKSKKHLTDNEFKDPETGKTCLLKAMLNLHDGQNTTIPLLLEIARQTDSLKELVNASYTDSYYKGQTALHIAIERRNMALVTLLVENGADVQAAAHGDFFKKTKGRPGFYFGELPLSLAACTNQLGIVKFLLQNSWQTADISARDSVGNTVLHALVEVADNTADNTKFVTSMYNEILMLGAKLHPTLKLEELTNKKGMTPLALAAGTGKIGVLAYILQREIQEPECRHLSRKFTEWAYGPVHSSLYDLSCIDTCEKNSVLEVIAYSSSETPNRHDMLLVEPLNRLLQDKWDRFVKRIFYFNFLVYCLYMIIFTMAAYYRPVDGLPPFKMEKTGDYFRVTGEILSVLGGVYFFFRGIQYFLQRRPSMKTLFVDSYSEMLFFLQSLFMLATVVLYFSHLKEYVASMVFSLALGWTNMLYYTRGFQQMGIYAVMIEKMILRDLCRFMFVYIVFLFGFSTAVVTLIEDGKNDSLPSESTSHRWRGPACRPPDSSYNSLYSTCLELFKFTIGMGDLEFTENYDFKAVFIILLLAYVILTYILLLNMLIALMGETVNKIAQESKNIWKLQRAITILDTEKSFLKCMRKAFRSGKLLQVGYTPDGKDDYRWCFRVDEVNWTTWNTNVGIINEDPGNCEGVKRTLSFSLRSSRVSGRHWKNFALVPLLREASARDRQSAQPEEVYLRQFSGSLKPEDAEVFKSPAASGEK

IC50 [1] | solubility [3] | SMILES | other results
– | 92 µM (≈ 37.5 µg/mL) | CCC(NC(=O)Cn1cnc2cccc([N+](=O)[O-])c21)c1ccc(C(F)(F)F)cn1 (stereo not shown) [Example 29, 2-(7-nitro-1H-benzimidazol-1-yl)-N-{1-[5-(trifluoromethyl)pyridin-2-yl]propyl}acetamide] | –
– | 97 µM (≈ 38.2 µg/mL) | CC(NC(=O)Cn1cnc2cccc([N+](=O)[O-])c21)c1ccc(C(F)(F)F)cn1 (stereo not shown) [Example 30, 2-(7-nitro-1H-benzimidazol-1-yl)-N-{1-[5-(trifluoromethyl)pyridin-2-yl]ethyl}acetamide] | –
– | 87 µM (≈ 36.3 µg/mL) | CC(NC(=O)Cn1cnc2cccc(Cl)c21)c1ncc(C(F)(F)F)cc1Cl (stereo not shown) [Example 31, 2-(7-chloro-1H-benzimidazol-1-yl)-N-{1-[3-chloro-5-(trifluoromethyl)pyridin-2-yl]ethyl}acetamide] | –
– | 87 µM (≈ 37.2 µg/mL) | CC(NC(=O)Cn1cnc2cccc([N+](=O)[O-])c21)c1ncc(C(F)(F)F)cc1Cl (stereo not shown) [Example 32, N-{1-[3-chloro-5-(trifluoromethyl)pyridin-2-yl]ethyl}-2-(7-nitro-1H-benzimidazol-1-yl)acetamide] | –
– | 100 µM (≈ 37.3 µg/mL) | CC(C)Oc1ccc(C(C)NC(=O)Cn2cnc3cccc(Cl)c32)cn1 (stereo not shown) [Example 35, 2-(7-chloro-1H-benzimidazol-1-yl)-N-[1-(6-isopropoxypyridin-3-yl)ethyl]acetamide] | –
9 nM | – | CC(NC(=O)Cn1cnc2cccc([N+](=O)[O-])c21)c1ccc(OC(F)(F)F)cc1 (stereo not shown) [Example 36, 2-(7-nitro-1H-benzimidazol-1-yl)-N-{1-[4-(trifluoromethoxy)phenyl]ethyl}acetamide] | –
6 nM | – | CC(NC(=O)Cn1cnc2cccc([N+](=O)[O-])c21)c1ccc(C(F)(F)F)cc1 (stereo not shown) [Example 37, 2-(7-nitro-1H-benzimidazol-1-yl)-N-{1-[4-(trifluoromethyl)phenyl]ethyl}acetamide] | –
– | 86 µM (≈ 33 µg/mL) | CC(C)Oc1ccc(C(C)NC(=O)Cn2cnc3cccc([N+](=O)[O-])c32)cn1 (stereo not shown) [Example 38, N-[1-(6-isopropoxypyridin-3-yl)ethyl]-2-(7-nitro-1H-benzimidazol-1-yl)acetamide] | –
1 nM | – | CC(NC(=O)Cn1cnc2cccc([N+](=O)[O-])c21)c1ccc(OC2CCCC2)c(F)c1 (stereo not shown) [Example 39, N-{1-[4-(cyclopentyloxy)-3-fluorophenyl]ethyl}-2-(7-nitro-1H-benzimidazol-1-yl)acetamide] | –
3 nM | – | CC(NC(=O)Cn1cnc2cccc([N+](=O)[O-])c21)c1ccc(C2CC2)cc1 (stereo not shown) [Example 40, N-[1-(4-cyclopropylphenyl)ethyl]-2-(7-nitro-1H-benzimidazol-1-yl)acetamide] | –
– | 82 µM (≈ 28.6 µg/mL) | C#Cc1ccc(C(C)NC(=O)Cn2cnc3cccc([N+](=O)[O-])c32)cc1 (stereo not shown) [Example 41, N-[1-(4-ethynylphenyl)ethyl]-2-(7-nitro-1H-benzimidazol-1-yl)acetamide] | –
– | 77 µM (≈ 26 µg/mL) | C#Cc1ccc(C(C)NC(=O)Cn2cnc3cccc(Cl)c32)cc1 (stereo not shown) [Example 42, 2-(7-chloro-1H-benzimidazol-1-yl)-N-[1-(4-ethynylphenyl)ethyl]acetamide] | –
– | 100 µM (≈ 50.5 µg/mL) | CC(NC(=O)Cn1cnc2cccc([N+](=O)[O-])c21)c1ccc(OC2CCN(C)CC2)c(C(F)(F)F)c1 (stereo not shown) [Example 46, N-{1-[4-[(1-Methylpiperidin-4-yl)oxy]-3-(trifluoromethyl)phenyl]ethyl}-2-(7-nitro-1H-benzimidazol-1-yl)acetamide] | –
8 nM | – | CO[C@@H](C)COc1ccc(C(C)NC(=O)Cn2cnc3cccc([N+](=O)[O-])c32)cc1C(F)(F)F (stereo partly drawn) [Example 47, N-{1-[4-{[(2S)-2-Methoxypropyl]oxy}-3-(trifluoromethyl)phenyl]ethyl}-2-(7-nitro-1H-benzimidazol-1-yl)acetamide] | –
7 nM | – | CC(COc1cccc(C(F)(F)F)c1)NC(=O)Cn1cnc2cccc([N+](=O)[O-])c21 (stereo not shown) [Example 48, N-{1-methyl-2-[3-(trifluoromethyl)phenoxy]ethyl}-2-(7-nitro-1H-benzimidazol-1-yl)acetamide] | –

Further lines, the compound ahead of its results:

SMILES | IC50 [1] | solubility [3] | other results
CC(C)Oc1ccc([C@H](C)NC(=O)Cn2cnc3cccc([N+](=O)[O-])c32)cc1 [Example 1, N-[(1S)-1-(4-isopropoxyphenyl)ethyl]-2-(7-nitro-1H-benzimidazol-1-yl)acetamide] | 1 nM | – | –
C[C@H](NC(=O)Cn1cnc2cccc([N+](=O)[O-])c21)c1ccc(OC(CF)CF)cc1 [Example 2, N-((1S)-1-{4-[2-fluoro-1-(fluoromethyl)ethoxy]phenyl}ethyl)-2-(7-nitro-1H-benzimidazol-1-yl)acetamide] | – | – | EC50 [2]: 105 nM; ED50 [2]: 1.3 µmol/kg; Extrapolated Emax [2]: 79%; Emax observed [2]: 79%; EC80 [2]: 170 nM
C[C@H](NC(=O)Cn1cnc2cccc([N+](=O)[O-])c21)c1ccc(OCCF)cc1 [Example 3, N-{(1S)-1-[4-(2-fluoroethoxy)phenyl]ethyl}-2-(7-nitro-1H-benzimidazol-1-yl)acetamide] | – | 90 µM (≈ 34.8 µg/mL) | –
C#CC(C)Oc1ccc([C@H](C)NC(=O)Cn2cnc3cccc([N+](=O)[O-])c32)cc1 (stereo partly drawn) [Example 4, N-((1S)-1-{4-[(1-methylprop-2-yn-1-yl)oxy]phenyl}ethyl)-2-(7-nitro-1H-benzimidazol-1-yl)acetamide] | 3 nM | – | –
COCC(C)Oc1ccc([C@H](C)NC(=O)Cn2cnc3cccc([N+](=O)[O-])c32)cc1 (stereo partly drawn) [Example 5, N-{(1S)-1-[4-(2-methoxy-1-methylethoxy)phenyl]ethyl}-2-(7-nitro-1H-benzimidazol-1-yl)acetamide] | – | 97 µM (≈ 40 µg/mL) | –
CCOc1ccc([C@H](C)NC(=O)Cn2cnc3cccc([N+](=O)[O-])c32)cc1 [Example 6, N-[(1S)-1-(4-ethoxyphenyl)ethyl]-2-(7-nitro-1H-benzimidazol-1-yl)acetamide] | – | 72 µM (≈ 26.5 µg/mL) | –
CC(NC(=O)Cn1cnc2cccc([N+](=O)[O-])c21)c1ccc(OCC(F)F)nc1 (stereo not shown) [Example 9, N-{1-[6-(2,2-difluoroethoxy)pyridin-3-yl]ethyl}-2-(7-nitro-1H-benzimidazol-1-yl)acetamide] | – | 98 µM (≈ 39.7 µg/mL) | –
CC(NC(=O)Cn1cnc2cccc([N+](=O)[O-])c21)c1ccc(OC2CCCC2)nc1 (stereo not shown) [Example 12, N-{1-[6-(cyclopentyloxy)pyridine-3-yl]ethyl}-2-(7-nitro-1H-benzimidazol-1-yl)acetamide] | 5 nM | – | –
CC(NC(=O)Cn1cnc2cccc([N+](=O)[O-])c21)c1ccc(OCC(F)(F)F)cc1 (stereo not shown) [Example 14, 2-(7-nitro-1H-benzimidazol-1-yl)-N-{1-[4-(2,2,2-trifluoroethoxy)phenyl]ethyl}acetamide] | – | 63 µM (≈ 26.6 µg/mL) | –
CC[C@H](C)Oc1ccc([C@H](C)NC(=O)Cn2cnc3cccc([N+](=O)[O-])c32)cc1 [Example 15, N-[(1S)-1-(4-{[(1S)-1-methylpropyl]oxy}phenyl)ethyl]-2-(7-nitro-1H-benzimidazol-1-yl)acetamide] | 1 nM | – | –
CC(NC(=O)Cn1cnc2cccc([N+](=O)[O-])c21)c1ccc(C(F)(F)Cl)cc1 (stereo not shown) [Example 16, N-(1-{4-[chloro(difluoro)methyl]phenyl}ethyl)-2-(7-nitro-1H-benzimidazol-1-yl)acetamide] | 10 nM | – | –
CC(NC(=O)Cn1cnc2cccc([N+](=O)[O-])c21)c1ccc(OCC(F)F)cc1 (stereo not shown) [Example 19, N-{1-[4-(2,2-difluoroethoxy)phenyl]ethyl}-2-(7-nitro-1H-benzimidazol-1-yl)acetamide] | – | 75 µM (≈ 30.3 µg/mL) | –
CC(NC(=O)Cn1cnc2cccc([N+](=O)[O-])c21)c1ccc(OC(F)(F)C(F)F)cc1 (stereo not shown) [Example 22, 2-(7-nitro-1H-benzimidazol-1-yl)-N-{1-[4-(1,1,2,2-tetrafluoroethoxy)phenyl]ethyl}acetamide] | 5 nM | – | –
CC(NC(=O)Cn1cnc2cccc(C#N)c21)c1ccc(OC(CF)CF)cc1 (stereo not shown) [Example 24, 2-(7-cyano-1H-benzimidazol-1-yl)-N-(1-{4-[2-fluoro-1-(fluoromethyl)ethoxy]phenyl}ethyl)acetamide] | – | 94 µM (≈ 37.5 µg/mL) | –
C[C@H](NC(=O)Cn1cnc2ccc(F)c(F)c21)c1ccc(C(C)(C)C)cc1 [Example 52, N-[(1S)-1-(4-tert-butylphenyl)ethyl]-2-(6,7-difluoro-1H-benzimidazol-1-yl)acetamide] | – | – | EC50 [2]: 500 nM; ED50 [2]: 37.4 µmol/kg; Extrapolated Emax [2]: >100%; Emax observed [2]: 74%; EC80 [2]: 1400 nM; EC50 ([4]; po, tested at Tmax): 1600 nM; ED50 ([4]; po, tested at Tmax): 120 µmol/kg; Extrapolated Emax ([4]; non-linear regression): >100%; Emax observed ([4]; reversal of heat hyperalgesia): 78%; EC80 ([4]; tested at Tmax): 4600 nM

Reference: US8168668B2, “Compounds” (AstraZeneca AB, priority 2005, dated 2012)
